Converted amounts (≈) assume the structure as drawn. Where a SMILES comes first, the peptide text is derived from it.
Key:
Staphylococcus aureus = assay: Antibacterial activity against Staphylococcus aureus ATCC 25923 after 16 hrs by broth microdilution method; format: functional; conditions: ATCC 25923, 16 h
Bacillus spizizenii = assay: Antibacterial activity against Bacillus subtilis ATCC 6633 after 16 hrs by broth microdilution method; format: functional; conditions: ATCC 6633, 16 h
Escherichia coli = assay: Antibacterial activity against Escherichia coli ATCC 25922 after 16 hrs by broth microdilution method; format: functional; conditions: ATCC 25922, 16 h
[1] = Toxicity against human erythrocytes assessed as hemolysis after 1 hr by spectrophotometric analysis; format: cell-based, Erythrocyte
[2] = Therapeutic index, ratio of HC50 for human erythrocytes to MIC for Staphylococcus aureus ATCC 25923; conditions: read-out: TI
[3] = Therapeutic index, ratio of HC50 for human erythrocytes to MIC for Bacillus subtilis ATCC 6633; conditions: read-out: TI
[4] = Solubility of the compound in water at 40 mg sonicated for 15 mins at 25 degC measured after 5 hrs; format: physicochemical

Molecule | MIC (Staphylococcus aureus) [µM] | MIC (Bacillus spizizenii) [µM] | MIC (Escherichia coli) [µM] | solubility at 5 h [4] [mg/mL] | HC50 at 1 h [1] [µM] | selectivity ratio [2] | selectivity ratio [3]
N=C(N)NCCC[C@H](N)C(=O)O [ARGININE] | > 2890 | > 2890 | > 2890 | – | – | – | –
C[C@H]1[C@H](C)CCC2(C(=O)O)CC[C@]3(C)C(=CC[C@@H]4[C@@]5(C)CC[C@H](OC(=O)CCc6cn(CC(=O)N[C@@H](CCCNC(=N)N)C(=O)N[C@@H](CCCNC(=N)N)C(=O)N[C@@H](CCCNC(=N)N)C(=O)N[C@@H](CCCNC(=N)N)C(=O)N[C@@H](CCCNC(=N)N)C(=O)O)nn6)C(C)(C)[C@@H]5CC[C@]43C)[C@H]12 (single isomer, unassigned) | 5.5 (≈ 7.8 µg/mL) | 2.7 (≈ 3.83 µg/mL) | > 88 | – | – | – | –
C[C@H]1[C@H](C)CC[C@]2(C(=O)OCc3cn(CC(=O)N[C@@H](CCCNC(=N)N)C(=O)N[C@@H](CCCNC(=N)N)C(=O)O)nn3)CC[C@]3(C)C(=CC[C@@H]4[C@@]5(C)CC[C@H](O)C(C)(C)[C@@H]5CC[C@]43C)[C@H]12 | 4.3 (≈ 3.91 µg/mL) | 4.3 (≈ 3.91 µg/mL) | > 138 | – | 49 | 11 | 11
C[C@H]1[C@H](C)CC[C@]2(C(=O)O)CC[C@]3(C)C(=CC[C@@H]4[C@@]5(C)CC[C@H](OC(=O)CCc6cn(CC(=O)N[C@@H](CCCNC(=N)N)C(=O)O)nn6)C(C)(C)[C@@H]5CC[C@]43C)[C@H]12 | 78.6 (≈ 62.4 µg/mL) | 19.6 (≈ 15.6 µg/mL) | > 157 | – | 158 | 2 | 8
C=C(C)[C@@H]1CC[C@]2(C(=O)OCc3cn(CC(=O)N[C@@H](CCCNC(=N)N)C(=O)N[C@@H](CCCNC(=N)N)C(=O)O)nn3)CC[C@]3(C)[C@H](CC[C@@H]4[C@@]5(C)CC[C@H](O)C(C)(C)[C@@H]5CC[C@]43C)[C@@H]12 | 8.6 (≈ 7.81 µg/mL) | 4.3 (≈ 3.91 µg/mL) | > 138 | 48 (≈ 52.9 mM) | – | – | –
C=C(C)[C@@H]1CC[C@]2(C(=O)OCc3cn(CC(=O)N[C@@H](CCCNC(=N)N)C(=O)N[C@@H](CCCNC(=N)N)C(=O)N[C@@H](CCCNC(=N)N)C(=O)N[C@@H](CCCNC(=N)N)C(=O)N[C@@H](CCCNC(=N)N)C(=O)N[C@@H](CCCNC(=N)N)C(=O)N[C@@H](CCCNC(=N)N)C(=O)N[C@@H](CCCNC(=N)N)C(=O)O)nn3)CC[C@]3(C)[C@H](CC[C@@H]4[C@@]5(C)CC[C@H](O)C(C)(C)[C@@H]5CC[C@]43C)[C@@H]12 | 4.2 (≈ 7.75 µg/mL) | 4.2 (≈ 7.75 µg/mL) | > 68 | – | – | – | –
NC(N)=NCCC[C@H](NC(=O)[C@@H](N)CCCN=C(N)N)C(=O)O (H-Arg-Arg-OH) | > 1520 | > 1520 | > 1520 | – | – | – | –
C=C(C)[C@@H]1CC[C@]2(C(=O)O)CC[C@]3(C)[C@H](CC[C@@H]4[C@@]5(C)CC[C@H](OC(=O)CCc6cn(CC(=O)N[C@@H](CCCNC(=N)N)C(=O)N[C@@H](CCCNC(=N)N)C(=O)O)nn6)C(C)(C)[C@@H]5CC[C@]43C)[C@@H]12 | 8.2 (≈ 7.79 µg/mL) | 4.1 (≈ 3.9 µg/mL) | > 131 | – | > 841 | > 103 | > 205
C=C(C)[C@@H]1CC[C@]2(C(=O)O)CC[C@]3(C)[C@H](CC[C@@H]4[C@@]5(C)CC[C@H](OC(=O)CCc6cn(CC(=O)N[C@@H](CCCNC(=N)N)C(=O)O)nn6)C(C)(C)[C@@H]5CC[C@]43C)[C@@H]12 | > 157 | 19.6 (≈ 15.6 µg/mL) | > 157 | – | > 1010 | – | > 51
N=C(N)NCCC[C@H](NC(=O)[C@H](CCCNC(=N)N)NC(=O)[C@H](CCCNC(=N)N)NC(=O)[C@H](CCCNC(=N)N)NC(=O)[C@H](CCCNC(=N)N)NC(=O)[C@H](CCCNC(=N)N)NC(=O)[C@H](CCCNC(=N)N)NC(=O)[C@@H](N)CCCNC(=N)N)C(=O)O | 24.6 (≈ 31.2 µg/mL) | 12.3 (≈ 15.6 µg/mL) | 197 (≈ 250 µg/mL) | – | – | – | –
H-RRRRR-OH | > 627 | 313 | > 627 | – | – | – | –
C[C@H]1[C@H](C)CC[C@]2(C(=O)O)CC[C@]3(C)C(=CC[C@@H]4[C@@]5(C)CC[C@H](OC(=O)CCc6cn(CC(=O)N[C@@H](CCCNC(=N)N)C(=O)N[C@@H](CCCNC(=N)N)C(=O)O)nn6)C(C)(C)[C@@H]5CC[C@]43C)[C@H]12 | 8.2 (≈ 7.79 µg/mL) | 4.1 (≈ 3.9 µg/mL) | > 131 | – | – | – | –
C=C(C)[C@@H]1CC[C@]2(C(=O)O)CC[C@]3(C)[C@H](CC[C@@H]4[C@@]5(C)CC[C@H](OC(=O)CCc6cn(CC(=O)N[C@@H](CCCNC(=N)N)C(=O)N[C@@H](CCCNC(=N)N)C(=O)N[C@@H](CCCNC(=N)N)C(=O)N[C@@H](CCCNC(=N)N)C(=O)N[C@@H](CCCNC(=N)N)C(=O)O)nn6)C(C)(C)[C@@H]5CC[C@]43C)[C@@H]12 | 2.7 (≈ 3.83 µg/mL) | 2.7 (≈ 3.83 µg/mL) | > 88 | – | 323 | 117 | 117
C=C(C)[C@@H]1CC[C@]2(C(=O)OCc3cn(CC(=O)N[C@@H](CCCNC(=N)N)C(=O)O)nn3)CC[C@]3(C)[C@H](CC[C@@H]4[C@@]5(C)CC[C@H](O)C(C)(C)[C@@H]5CC[C@]43C)[C@@H]12 | > 166 | 83 (≈ 62.4 µg/mL) | > 166 | 1.3 (≈ 1.73 mM) | 397 | – | 5

Continued, in another order:

MIC (Staphylococcus aureus) [µM] | MIC (Bacillus spizizenii) [µM] | MIC (Escherichia coli) [µM] | solubility at 5 h [4] [mg/mL] | Molecule | HC50 at 1 h [1] [µM] | selectivity ratio [2] | selectivity ratio [3]
137 (≈ 62.6 µg/mL) | 68 (≈ 31.1 µg/mL) | > 1100 | – | C[C@H]1[C@H](C)CC[C@]2(C(=O)O)CC[C@]3(C)C(=CC[C@@H]4[C@@]5(C)CC[C@H](O)C(C)(C)[C@@H]5CC[C@]43C)[C@H]12 [URSOLIC ACID] | – | – | –
3.7 (≈ 3.94 µg/mL) | 3.7 (≈ 3.94 µg/mL) | 14.7 (≈ 15.6 µg/mL) | – | C[C@H]1[C@H](C)CC[C@]2(C(=O)OCc3cn(CC(=O)N[C@@H](CCCNC(=N)N)C(=O)N[C@@H](CCCNC(=N)N)C(=O)N[C@@H](CCCNC(=N)N)C(=O)O)nn3)CC[C@]3(C)C(=CC[C@@H]4[C@@]5(C)CC[C@H](O)C(C)(C)[C@@H]5CC[C@]43C)[C@H]12 | 29 | 8 | 8
7 (≈ 7.75 µg/mL) | 3.5 (≈ 3.87 µg/mL) | > 113 | – | C[C@H]1[C@H](C)CCC2(C(=O)O)CC[C@]3(C)C(=CC[C@@H]4[C@@]5(C)CC[C@H](OC(=O)CCc6cn(CC(=O)N[C@@H](CCCNC(=N)N)C(=O)N[C@@H](CCCNC(=N)N)C(=O)N[C@@H](CCCNC(=N)N)C(=O)O)nn6)C(C)(C)[C@@H]5CC[C@]43C)[C@H]12 (single isomer, unassigned) | 360 | 51 | 102
4.1 (≈ 7.74 µg/mL) | 4.1 (≈ 7.74 µg/mL) | > 66 | – | C=C(C)[C@@H]1CC[C@]2(C(=O)O)CC[C@]3(C)[C@H](CC[C@@H]4[C@@]5(C)CC[C@H](OC(=O)CCc6cn(CC(=O)N[C@@H](CCCNC(=N)N)C(=O)N[C@@H](CCCNC(=N)N)C(=O)N[C@@H](CCCNC(=N)N)C(=O)N[C@@H](CCCNC(=N)N)C(=O)N[C@@H](CCCNC(=N)N)C(=O)N[C@@H](CCCNC(=N)N)C(=O)N[C@@H](CCCNC(=N)N)C(=O)N[C@@H](CCCNC(=N)N)C(=O)O)nn6)C(C)(C)[C@@H]5CC[C@]43C)[C@@H]12 | > 424 | > 103 | > 103
4.2 (≈ 7.75 µg/mL) | 4.2 (≈ 7.75 µg/mL) | > 68 | – | C[C@H]1[C@H](C)CC[C@]2(C(=O)OCc3cn(CC(=O)N[C@@H](CCCNC(=N)N)C(=O)N[C@@H](CCCNC(=N)N)C(=O)N[C@@H](CCCNC(=N)N)C(=O)N[C@@H](CCCNC(=N)N)C(=O)N[C@@H](CCCNC(=N)N)C(=O)N[C@@H](CCCNC(=N)N)C(=O)N[C@@H](CCCNC(=N)N)C(=O)N[C@@H](CCCNC(=N)N)C(=O)O)nn3)CC[C@]3(C)C(=CC[C@@H]4[C@@]5(C)CC[C@H](O)C(C)(C)[C@@H]5CC[C@]43C)[C@H]12 | 41 | 10 | 10
> 1030 | > 1030 | > 1300 | – | N=C(N)NCCC[C@H](NC(=O)[C@H](CCCNC(=N)N)NC(=O)[C@@H](N)CCCNC(=N)N)C(=O)O (H-Arg-Arg-Arg-OH) | – | – | –
4.1 (≈ 7.74 µg/mL) | 4.1 (≈ 7.74 µg/mL) | > 66 | – | C[C@H]1[C@H](C)CCC2(C(=O)O)CC[C@]3(C)C(=CC[C@@H]4[C@@]5(C)CC[C@H](OC(=O)CCc6cn(CC(=O)N[C@@H](CCCNC(=N)N)C(=O)N[C@@H](CCCNC(=N)N)C(=O)N[C@@H](CCCNC(=N)N)C(=O)N[C@@H](CCCNC(=N)N)C(=O)N[C@@H](CCCNC(=N)N)C(=O)N[C@@H](CCCNC(=N)N)C(=O)N[C@@H](CCCNC(=N)N)C(=O)N[C@@H](CCCNC(=N)N)C(=O)O)nn6)C(C)(C)[C@@H]5CC[C@]43C)[C@H]12 (single isomer, unassigned) | > 424 | > 103 | > 103
10.4 (≈ 7.82 µg/mL) | 5.2 (≈ 3.91 µg/mL) | > 166 | – | C[C@H]1[C@H](C)CC[C@]2(C(=O)OCc3cn(CC(=O)N[C@@H](CCCNC(=N)N)C(=O)O)nn3)CC[C@]3(C)C(=CC[C@@H]4[C@@]5(C)CC[C@H](O)C(C)(C)[C@@H]5CC[C@]43C)[C@H]12 | 83 | 8 | 16
5.7 (≈ 7.85 µg/mL) | 2.8 (≈ 3.85 µg/mL) | > 91 | – | C[C@H]1[C@H](C)CC[C@]2(C(=O)OCc3cn(CC(=O)N[C@@H](CCCNC(=N)N)C(=O)N[C@@H](CCCNC(=N)N)C(=O)N[C@@H](CCCNC(=N)N)C(=O)N[C@@H](CCCNC(=N)N)C(=O)N[C@@H](CCCNC(=N)N)C(=O)O)nn3)CC[C@]3(C)C(=CC[C@@H]4[C@@]5(C)CC[C@H](O)C(C)(C)[C@@H]5CC[C@]43C)[C@H]12 | 25 | 6 | 11
